These results are taken from patent US20240317754A1 (priority 2020, published 2024).

Entries after “also recorded” stand apart in the source; their conditions may differ. Where two headings read alike, the source gives them in different places.

One series deals with SARS-CoV replicon. In words: microbe, parasite or virus in culture. It counts as cell-based. The following applies: for IC50 / inhibition at 10 µM: Severe acute respiratory syndrome coronavirus, HEK-293T, 60 h.
A further series deals with MHV-A59. As to the kind of experiment: In vivo efficacy in murine hepatitis virus (MHV-A59) infected BALB/c mice. From the text: • Mice: SPF-grade male BALB/c mice, 100, weighing 18-22 g. • Operation: The experimental mice were infected with MHV-A59 nasal drops and randomly divided into ten groups (n=10 each).
The mice were monitored daily for disease symptoms, including body weight, clinical symptoms, and death, for 14 days. Record the body weight changes of mice in each treatment group after virus infection (FIG. 4A) and survival curves (FIG. 4B). The fluorescence quantitative PCR method was used to determine the virus titer in mouse liver 72 hours after virus infection (FIG. 4C).

The next series relates to SARS-CoV-2 (B.1). As to the kind of experiment: microbe, parasite or virus in culture. It counts as cell-based.
Another series deals with SARS-CoV-2 replicon. In words: microbe, parasite or virus in culture. In kind it is cell-based. The following applies: HEK293T cells; for inhibition at 10 µM / IC50: Severe acute respiratory syndrome coronavirus 2, HEK-293T, 60 h.
The next series deals with SARS-CoV-2. In words: In vivo efficacy against SARS-CoV-2 in hACE2 humanized mice.
The nature of series [1]: PK study in cynomolgus monkeys. It counts as in vivo. The protocol:
Three male cynomolgus monkeys weighing 3-5 kg were used for the pharmacokinetic study. Compound AVT006 was administered intragastrically with the dose of 10 mg/kg on day 1. After administration, the blood samples for plasma were collected from a jugular vein from each monkey over 48 hours. The plasma samples (1 mL) were obtained at predose, and 0.083, 0.25, 0.5, 1, 2, 4, 8, 24 and 48 h postdose. After recovery for three days, compound AVT006 was administered intravenously with a dose of 5 mg/kg at day 5. The blood samples for plasma were collected from a jugular vein from each monkey over 48 hours. 1 mL plasma samples were obtained at predose, and 0.083, 0.25, 0.5, 1, 2, 4, 8, 24 and 48 h postdose. Samples were treated with anticoagulant EDTA-K2 and centrifuged under 2000 g for 10 min at 4° C. The supernatants (plasma) were collected and stored at −65° C. for future analysis. The drug concentration in each sample was tested by Watson LIMS 7.5 SP1 HPLC/MS. The pharmacokinetic parameters were calculated using WinNonlin 6.3 software.

The conditions of series [2]: as reported by NIH OpenData Portal; species not printed (context non-human primates); cited from earlier work.
The mark [3] stands for this setting: Severe acute respiratory syndrome coronavirus 2, Vero C1008, 48 h.
[4] abbreviates: male, cynomolgus monkey, plasma, IV 5 mg/kg, analyzed ATV006.

Turning to `CC(C)C(=O)OC[C@H]1O[C@@](C#N)(c2ccc3c(N)ncnn23)[C@H](O)[C@@H]1O` [ATV006, ((2R,3S,4R,5R)-5-(4-aminopyrrolo[2,1-f][1,2,4]triazin-7-yl)-5-cyano-3,4-dihydroxytetrahydrofuran-2-yl)methyl isobutyrate], in the series on SARS-CoV replicon, the “activity relative to GS-441524” value is reported as “twice that of compound GS-441524”, 0.57 µM corresponded to half-maximal inhibition (IC50) and at 10 µM the inhibition was 99.2%. For the same compound, in the series with MHV-A59 (BALB/c mice, 2 mg/kg IG), the “day after infection on which mice began to die” value was 4 days and the median death rate came to 6 days. For the same compound, the mortality rate in the series with MHV-A59 (BALB/c mice, 2 mg/kg IG, by day 10 after infection, vs control group p=0.0291) came out at 100%. For the same compound, the survival entry with MHV-A59 (BALB/c mice, 2 mg/kg IG, in words, 2 mg/kg) is listed as “positive effect in prolonging the survival time of animals; also recorded: increased the survival rate”. Also, the “death and weight loss of mice” value in the series on MHV-A59 (BALB/c mice, ATV006 IG at doses except 2 mg/kg (5-50 mg/kg), 14 days, in words) was “can avoid the death and weight loss of mice at low doses”. The “antiviral activity in vivo compared with GS-441524 and RDV” value in the series on MHV-A59 (BALB/c mice, in words) is given as “better antiviral activity in vivo”. For the same compound, the “replication of the virus in the liver” value in the series on MHV-A59 (BALB/c mice, virus titer in liver 72 hours after infection, in words) is reported as “significantly inhibit the replication of the virus in the liver”. In addition, the antiviral effect result in the series on MHV-A59 (mice, medium dose 5 mg/kg-50 mg/kg, in words) is given as “excellent antiviral effect in a dose-dependent manner”. The compound also displayed an IC50 in the series on SARS-CoV-2 (B.1) (setting [3]) of 1.36 µM. For the same compound, in the series with SARS-CoV-2 replicon (in words), the “antiviral activity relative to GS-441524” value was “lower IC50 values and higher antiviral activity”; the “inhibition of SARS-CoV-2 replicon replication” value was “significant inhibitory effects”. In the series on SARS-CoV-2 replicon, this compound registered an inhibition at 10 µM of 98.6% and an IC50 of 0.51 µM. In the series on SARS-CoV-2, the “amount of viral genome (N gene) in lung tissue” value is on record as “significantly lower than that in the control group” and the “amount of viral subgenome (subgenomic N) in lung tissue” value is “significantly lower than that in the control group”. For the same compound, the “metabolism to GS-441524” value in series [1] (in words) is on record as “quickly metabolized into the active metabolite GS-441524”. Besides, in series [1] (setting [4]), the AUC(0-inf) was determined as 19.6 ± 5.43 ng·h/mL, the AUC(0-t) was 19.4 ± 5.35 ng·h/mL, the highest concentration (Cmax) was determined as 132 ± 37.4 ng/mL and the time of peak concentration (Tmax) worked out at 5 min. This compound also showed a half-life in series [1] (setting [4]) of 4.15 ± 0.446 min.

Regarding `CC(C)CC(=O)OC[C@H]1O[C@@](C#N)(c2ccc3c(N)ncnn23)[C@H](O)[C@@H]1O` [ATV017, ((2R,3S,4R,5R)-5-(4-aminopyrrolo[2,1-f][1,2,4]triazin-7-yl)-5-cyano-3,4-dihydroxytetrahydrofuran-2-yl)methyl 3-methylbutanoate], the values for the IC50 in the series with SARS-CoV-2 (B.1) (setting [3]) and in the series on SARS-CoV-2 replicon were 2.19 µM and 0.43 µM, respectively. For the same compound, in the series with SARS-CoV-2 replicon, at 10 µM the inhibition was 97.2%.

`CC(C)(C)C(=O)OC[C@H]1O[C@@](C#N)(c2ccc3c(N)ncnn23)[C@H](O)[C@@H]1O` [ATV018, ((2R,3S,4R,5R)-5-(4-aminopyrrolo[2,1-f][1,2,4]triazin-7-yl)-5-cyano-3,4-dihydroxytetrahydrofuran-2-yl)methyl pivalate]: half-maximal inhibition in the series on SARS-CoV-2 (B.1) (setting [3]) (IC50) was put at 0.939 µM. In the series on SARS-CoV-2 replicon, this compound came in with an inhibition at 10 µM of 97.5% and an IC50 of 0.42 µM.

With `N#C[C@@]1(c2ccc3c(N)ncnn23)O[C@H](CO)[C@@H](O)[C@H]1O` [GS-441524, reference compound], the IC50 in the series with SARS-CoV replicon came out at 1.1 µM; with SARS-CoV-2 (B.1), 2.28 µM; with SARS-CoV-2 replicon, 0.95 µM. Moreover, the inhibition at 10 µM in the series on SARS-CoV replicon and with SARS-CoV-2 replicon was 99.8% each time. Further, in series [2], the bioavailability is on record as 8.3%.

As a reminder, the IC50 is the point on the concentration scale where inhibition reaches its midpoint. The low end stands for greater potency, the high end for weaker potency. By inhibition is commonly meant the relative decrease from the control value, in per cent. Low values mean little suppression, high ones strong suppression. What is called AUC(0-inf) is the area under the concentration-time curve extrapolated to infinity. For orientation: AUC(0-t) means exposure summed from dosing to a finite time, without extrapolation to infinity. Low values mean less exposure, high ones more exposure. The Cmax is the maximum level reached in the sampled fluid or tissue. The Tmax is the time at which the peak concentration occurs. As usually defined, the half-life is the time needed for the level to fall by half in the phase considered. Low readings indicate fast loss, high ones slow loss. As usually defined, the bioavailability is dose-corrected exposure relative to a reference, in per cent.
